Results: article PMC7441158 (Nature Communications, 2020)

Assays:
[1] = target: T1, VIP receptor 1 (VPAC1) (Homo sapiens, UniProt P32241); test: cAMP assay, COS-7 cells transiently expressing VPAC1; assay type: cell-based; conditions: for % receptor activation at 1µM agonist: VPAC1 + VIP, Suppl. fig 5a source data; for EC50: log(EC50) VPAC1 + VIP, log10 of EC50, COS-7 cells, cAMP, Hill = 1, top constrained to 100%
T1 sequence (P32241 31-457): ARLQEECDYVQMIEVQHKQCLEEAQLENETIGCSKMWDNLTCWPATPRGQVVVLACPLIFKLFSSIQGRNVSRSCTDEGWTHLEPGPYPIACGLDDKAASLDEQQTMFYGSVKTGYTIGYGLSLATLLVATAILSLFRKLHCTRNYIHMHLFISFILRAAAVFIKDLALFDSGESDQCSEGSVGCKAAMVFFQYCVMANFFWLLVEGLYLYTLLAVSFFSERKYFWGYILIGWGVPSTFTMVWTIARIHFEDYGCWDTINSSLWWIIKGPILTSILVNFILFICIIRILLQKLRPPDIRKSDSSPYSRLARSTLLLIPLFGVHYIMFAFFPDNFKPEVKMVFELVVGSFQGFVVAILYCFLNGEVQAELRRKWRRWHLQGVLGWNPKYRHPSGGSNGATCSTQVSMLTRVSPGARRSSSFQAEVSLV

[2] = target: T2, VIP receptor 2 (VPAC2) (Homo sapiens, UniProt P41587); test: cAMP assay, COS-7 cells transiently expressing VPAC2; assay type: cell-based; conditions: for % receptor activation at 1µM agonist: VPAC2 + VIP, Suppl. fig 5a source data; for EC50: log(EC50) VPAC 2 + VIP, log10 of EC50, COS-7 cells, cAMP, Hill = 1, top constrained to 100%
T2 sequence (P41587 24-438): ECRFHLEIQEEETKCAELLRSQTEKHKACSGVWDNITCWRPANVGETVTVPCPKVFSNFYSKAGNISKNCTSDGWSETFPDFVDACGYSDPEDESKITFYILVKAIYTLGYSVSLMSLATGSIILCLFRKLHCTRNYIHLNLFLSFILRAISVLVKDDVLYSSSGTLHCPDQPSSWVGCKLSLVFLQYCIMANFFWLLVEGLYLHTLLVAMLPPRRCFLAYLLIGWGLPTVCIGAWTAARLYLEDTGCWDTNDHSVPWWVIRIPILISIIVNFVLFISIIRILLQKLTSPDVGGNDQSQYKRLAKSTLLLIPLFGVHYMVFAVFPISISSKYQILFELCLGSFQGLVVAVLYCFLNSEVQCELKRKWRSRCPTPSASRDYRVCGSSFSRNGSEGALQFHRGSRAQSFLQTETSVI

[3] = test system: neprilysin (NEP); test: NEP (R&D Systems) in 50 mM Tris, 0.05% Brij-35, pH 9.0; conditions: 37 °C, up to 24 h
[4] = independent experiment 1, duplicate determinations
[5] = independent experiment 2, duplicate determinations
[6] = independent experiment 3, duplicate determinations

Row | Molecule | EC50 [1, 4] | EC50 [1, 5] | EC50 [1, 6] | Efficacy raw data for Glucagon-receptors, VPAC1 + VIP ([1]; replicate 1) | Efficacy raw data for Glucagon-receptors, VPAC1 + VIP ([1]; replicate 2) | Efficacy raw data for Glucagon-receptors, VPAC1 + VIP ([1]; replicate 3) | % receptor activation at 1µM agonist ([2]; replicate 1) | % receptor activation at 1µM agonist ([2]; replicate 2) | % receptor activation at 1µM agonist ([2]; replicate 3) | % receptor activation at 1µM agonist ([2]; replicate 4) | % receptor activation at 1µM agonist ([2]; replicate 5) | % receptor activation at 1µM agonist ([2]; replicate 6) | EC50 [2, 4] | EC50 [2, 5] | EC50 [2, 6] | Efficacy raw data for Glucagon-receptors, VPAC2 + VIP ([2]; replicate 1) | Efficacy raw data for Glucagon-receptors, VPAC2 + VIP ([2]; replicate 2) | Efficacy raw data for Glucagon-receptors, VPAC2 + VIP ([2]; replicate 3) | also measured
1 | CC[C@H](C)[C@H](NC(=O)[C@H](CO)NC(=O)[C@H](CC(N)=O)NC(=O)[C@H](CC(C)C)NC(=O)[C@H](Cc1ccc(O)cc1)NC(=O)[C@H](CCCCN)NC(=O)[C@H](CCCCN)NC(=O)[C@@H](NC(=O)[C@H](C)NC(=O)[C@H](CCSC)NC(=O)[C@H](CCC(N)=O)NC(=O)[C@H](CCCCN)NC(=O)[C@H](CCCNC(=N)N)NC(=O)[C@H](CC(C)C)NC(=O)[C@H](CCCNC(=N)N)NC(=O)[C@@H](NC(=O)[C@H](Cc1ccc(O)cc1)NC(=O)[C@H](CC(N)=O)NC(=O)[C@H](CC(=O)O)NC(=O)[C@@H](NC(=O)[C@H](Cc1ccccc1)NC(=O)[C@@H](NC(=O)[C@H](C)NC(=O)[C@H](CC(=O)O)NC(=O)[C@H](CO)NC(=O)[C@@H](N)Cc1c[nH]cn1)C(C)C)[C@@H](C)O[C@H]1O[C@H](CO)[C@H](O)[C@H](O)[C@H]1NC(C)=O)[C@@H](C)O)C(C)C)C(=O)N[C@@H](CC(C)C)C(=O)N[C@@H](CC(N)=O)C(N)=O [VIP Tn] | 42.6 nM | 207 nM | 101 nM | 102 | 111.1 | 105.8 | 70.4% | 67.4% | 67.0% | 57.3% | 63.7% | 60.1% | 421 nM | 656 nM | 577 nM | 74.75 | 186 | 78.02 | % receptor activation at 1µM agonist ([1]; replicate 4): 82.0%
2 | GWTLNSAGYLLGPHAVGNHRSFSDKNGLTS [Galanin T] |  |  |  |  |  |  |  |  |  |  |  |  |  |  |  |  |  |  | not cleaved [3]: −: not susceptible to degradation
3 | CC[C@H](C)[C@H](NC(=O)[C@H](CO)NC(=O)[C@H](CC(N)=O)NC(=O)[C@H](CC(C)C)NC(=O)[C@H](Cc1ccc(O)cc1)NC(=O)[C@H](CCCCN)NC(=O)[C@H](CCCCN)NC(=O)[C@@H](NC(=O)[C@H](C)NC(=O)[C@H](CCSC)NC(=O)[C@H](CCC(N)=O)NC(=O)[C@H](CCCCN)NC(=O)[C@H](CCCNC(=N)N)NC(=O)[C@H](CC(C)C)NC(=O)[C@H](CCCNC(=N)N)NC(=O)[C@@H](NC(=O)[C@H](Cc1ccc(O)cc1)NC(=O)[C@H](CC(N)=O)NC(=O)[C@H](CC(=O)O)NC(=O)[C@@H](NC(=O)[C@H](Cc1ccccc1)NC(=O)[C@@H](NC(=O)[C@H](C)NC(=O)[C@H](CC(=O)O)NC(=O)[C@H](CO)NC(=O)[C@@H](N)Cc1c[nH]cn1)C(C)C)[C@@H](C)O[C@H]1O[C@H](CO)[C@H](O)[C@H](O[C@@H]2O[C@H](CO)[C@H](O)[C@H](O[C@]3(C(=O)O)C[C@H](O)[C@@H](NC(C)=O)[C@H]([C@H](O)[C@H](O)CO)O3)[C@H]2O)[C@H]1NC(C)=O)[C@@H](C)O)C(C)C)C(=O)N[C@@H](CC(C)C)C(=O)N[C@@H](CC(N)=O)C(N)=O [VIP ST] | 34.1 nM | 116 nM | 162 nM | 91.02 | 112.4 | 93.56 | 68.0% | 68.9% | 66.1% | 69.7% | 54.2% | 49.2% | 378 nM | 596 nM | 946 nM | 72.87 |  | 74.68 | 
4 | CC[C@H](C)[C@H](NC(=O)[C@H](CO)NC(=O)[C@H](CC(N)=O)NC(=O)[C@H](CC(C)C)NC(=O)[C@H](Cc1ccc(O)cc1)NC(=O)[C@H](CCCCN)NC(=O)[C@H](CCCCN)NC(=O)[C@@H](NC(=O)[C@H](C)NC(=O)[C@H](CCSC)NC(=O)[C@H](CCC(N)=O)NC(=O)[C@H](CCCCN)NC(=O)[C@H](CCCNC(=N)N)NC(=O)[C@H](CC(C)C)NC(=O)[C@H](CCCNC(=N)N)NC(=O)[C@@H](NC(=O)[C@H](Cc1ccc(O)cc1)NC(=O)[C@H](CC(N)=O)NC(=O)[C@H](CC(=O)O)NC(=O)[C@@H](NC(=O)[C@H](Cc1ccccc1)NC(=O)[C@@H](NC(=O)[C@H](C)NC(=O)[C@H](CC(=O)O)NC(=O)[C@H](CO)NC(=O)[C@@H](N)Cc1c[nH]cn1)C(C)C)[C@@H](C)O[C@H]1O[C@H](CO)[C@H](O)[C@H](O[C@@H]2O[C@H](CO)[C@H](O)[C@H](O)[C@H]2O)[C@H]1NC(C)=O)[C@@H](C)O)C(C)C)C(=O)N[C@@H](CC(C)C)C(=O)N[C@@H](CC(N)=O)C(N)=O [VIP T] | 18.9 nM | 88.7 nM | 45.8 nM | 95.97 | 106.4 | 107.3 | 72.7% | 72.4% | 74.8% | 68.0% | 58.9% | 52.3% | 202 nM | 422 nM | 718 nM | 75.53 | 106.2 | 67.09 | % receptor activation at 1µM agonist ([1]; replicate 5): 104.2%
5 | CC[C@H](C)[C@H](NC(=O)[C@H](CO)NC(=O)[C@H](CC(N)=O)NC(=O)[C@H](CC(C)C)NC(=O)[C@H](Cc1ccc(O)cc1)NC(=O)[C@H](CCCCN)NC(=O)[C@H](CCCCN)NC(=O)[C@@H](NC(=O)[C@H](C)NC(=O)[C@H](CCSC)NC(=O)[C@H](CCC(N)=O)NC(=O)[C@H](CCCCN)NC(=O)[C@H](CCCNC(=N)N)NC(=O)[C@H](CC(C)C)NC(=O)[C@H](CCCNC(=N)N)NC(=O)[C@@H](NC(=O)[C@H](Cc1ccc(O)cc1)NC(=O)[C@H](CC(N)=O)NC(=O)[C@H](CC(=O)O)NC(=O)[C@@H](NC(=O)[C@H](Cc1ccccc1)NC(=O)[C@@H](NC(=O)[C@H](C)NC(=O)[C@H](CC(=O)O)NC(=O)[C@H](CO)NC(=O)[C@@H](N)Cc1c[nH]cn1)C(C)C)[C@@H](C)O)[C@@H](C)O)C(C)C)C(=O)N[C@@H](CC(C)C)C(=O)N[C@@H](CC(N)=O)C(N)=O [VIP, vasoactive intestinal polypeptide, reference compound] |  |  |  |  |  |  |  |  |  |  |  |  |  |  |  | 99.97 | 100 | 100 | 
6 | CC[C@H](C)[C@H](NC(=O)[C@H](CO)NC(=O)[C@H](CC(N)=O)NC(=O)[C@H](CC(C)C)NC(=O)[C@H](Cc1ccc(O)cc1)NC(=O)[C@H](CCCCN)NC(=O)[C@H](CCCCN)NC(=O)[C@@H](NC(=O)[C@H](C)NC(=O)[C@H](CCSC)NC(=O)[C@H](CCC(N)=O)NC(=O)[C@H](CCCCN)NC(=O)[C@H](CCCNC(=N)N)NC(=O)[C@H](CC(C)C)NC(=O)[C@H](CCCNC(=N)N)NC(=O)[C@@H](NC(=O)[C@H](Cc1ccc(O)cc1)NC(=O)[C@H](CC(N)=O)NC(=O)[C@H](CC(=O)O)NC(=O)[C@@H](NC(=O)[C@H](Cc1ccccc1)NC(=O)[C@@H](NC(=O)[C@H](C)NC(=O)[C@H](CC(=O)O)NC(=O)[C@H](CO)NC(=O)[C@@H](N)Cc1c[nH]cn1)C(C)C)[C@@H](C)O)[C@@H](C)O)C(C)C)C(=O)N[C@@H](CC(C)C)C(=O)N[C@@H](CC(N)=O)C(N)=O [VIP non-glycosylated] |  |  |  |  |  |  | 79.5% | 82.6% | 101.8% | 110.5% | 97.7% | 107.3% |  |  |  |  |  |  | 
